# Assay results: patent US12611456B2, “Use of thiazole amide compounds for modulating human immune response” (Children's Medical Center Corporation, priority 2019, dated 2026)
# Entries after “also recorded” stand apart in the source; their conditions may differ.
# Columns and labels:
# NF-κB [1] = experiment: THP1-NF-κB reporter cell line, luminescence; format: cell-based, human; details: THP1-NF-κB cells, 100 to 0.02 μM
# Excerpt: (§1) The THP1-NF-κB Lucia, THP1-dual NF-κB/IRF parent cell line, knocked out for MyD88 (THP1-AMyD88), TBK1 (THP1-ΔTBK1), IRF3 (THP1-AIRF3), cGAS (THP1-AcGAS), STING (THP1-ASTING), or expressing murine STING were obtained from Invivogen (San Diego, CA). THP1-derived cell lines are human monocytic cells derived from the blood of a child with leukemia and contain NF-κB- and IRF-inducible reporter construct to allow colorimetric- or luminescence-based assessment of NF-κB and IRF activities. THP1 cells were cultured in RPMI 1640 supplemented with 10% non-heat inactivated fetal bovine serum (FBS), 10 mM HEPES, 1.0 mM sodium pyruvate, 50 ug/ml Pen-Strep, and 100 ug/mL Normocin™. Once cultured, the cells were stored in a 37° C. incubator with 5% CO2 and a humidified atmosphere. Cells were passaged every 2-3 days and not allowed to exceed a concentration of 2.0×10^6 cells/ml media.
# THP1-NF-κB cells between passage 15 and 18 and suspended in culture medium were dispensed into 384-well black clear-bottom plates (Corning 3712) at 30,000 cells/30 μl/well using a Combi liquid dispenser. To allow comparison to a benchmark small molecule with known immune stimulating activity, cells at the same concentration were stimulated with 50 μM R848, a TLR7/8 agonist, in 0.3% DMSO and added to every other well of column 24, which was left empty of cells, by multichannel pipette at the same volume. Five μl of 700 nM Phorbol myristate acetate (PMA) in THP1 culture media and 2.3% DMSO, a known peripheral blood cell mitogen, was added to every other well of column 23 by multichannel pipette (final concentration in well: 100 nM in 0.3% DMSO). Five μl of THP1 culture media with 2.3% DMSO was added to the remaining wells of column 23 by multichannel pipette (final concentration 0.3% DMSO). One hundred nl aliquots of library compounds diluted in 100% DMSO were transferred from their original 384-well plates to the assay plates using a Seiko pin transfer machine. Each library plate was pinned in duplicate, yielding two assay plates with identical conditions for comparison. Plates were then incubated for 24 hours at 37 C with 5% CO2 in humid conditions. Following incubation, 10 μL of supernatant was removed from each well and transferred to a white plate (Corning 3570) using a Vprep liquid transfer machine. 10 μL of recombinant Lucia protein (Invivogen) diluted 1:2000 in THP1 culture media was added to empty well 24P. Using a Combi liquid dispenser, 50 μL/well of Quanti-Luc substrate (Invivogen) diluted 1:3 in sterile water was added to the assay plate. Immediately after adding the substrate, the luminescence was read using a PerkinElmer Envision plate reader. This assay was adapted to a 96 well format to confirm and expand the HTS results.
# IRF [2] = experiment: THP1-ISG reporter cell line, luminescence; format: cell-based, human; details: THP1-ISG cells, 100 to 0.02 μM
# Excerpt: High throughput screen (HTS) overview: To identify small molecule immunomodulators/adjuvants that robustly activate human immune cells, ˜200,000 small molecules were screened and tested against THP1 cells. The chemical libraries screened included known bioactive and commercial libraries from various sources including commercial libraries such as ChemDiv, ChemBridge, and Asinex. All libraries were owned and provided by the Institute of Chemistry and Cell Biology (ICCB)—Longwood (Harvard Medical School). The project primary screen incorporated two distinct arms: a) a luciferase-based screen which corresponds to the relative activation of the human NFκB Reporter gene; and b) a fluorescence-based screen, corresponding to the phenotypic adherence, a distinct marker of cell activation, of the THP1 cells. In a secondary luciferase-based screen IRF-inducing activities of selected hits using a THP1-ISG reporter cell line were evaluated. Here, discovery of a thiazole amide small molecule family with both NFκB/IRF-inducing and leukocyte adherence-inducing activities towards human leukocytes was observed.
# Briefly, THP1-dual NF-κB/IRF parent and derived cell lines were resuspended at a concentration of 10^5 cells/200 μl of THP1 culture medium and transferred to a 96-well plate pre-loaded with compounds dissolved in DMSO. In selected experiments, THP1 cells were also stimulated with TNF and IFNβ as controls for NF-κB and IRF activities, respectively. After 22-24 hours of incubation (37° C., 5% CO2), plates were spun down (500×g, room temperature, 5 minutes) and supernatants were harvested to assess NF-κB and IRF activities by measuring the levels of SEAP and Lucia luciferase with Quanti-Blue and Quanti-Luc, respectively.
# THP1-NF-κB cells [3] = experiment: THP1 cell adherence assay; format: cell-based, human; details: 33 μM, PMA and R848 positive controls
# Protocol: (§2) Following incubation and supernatant transfer described above, each black assay plate was manually washed. First, remaining suspension cells were expelled into a bath of 15% bleach by shaking the plate upside down. The plate was then submerged in a 7 L bath of 1×PBS. Once submerged, each plate was shaken vigorously side-to-side to release any air bubbles forming in the wells. The plate was then removed and shaken into the bleach bath once again. This process was repeated 3 times per plate. 30 μL/well of a mix of 2 μg/mL Hoechst 33342 in PBS with 1% Para-formaldehyde was added using a Combi liquid dispenser to the washed assay plates. Plates were left in the dark to stain and fix for 20 minutes. Washed and stained assay plates were then loaded onto an Acumen laser scanning cytometer. Total fluorescence area and number of objects (nuclei) were measured using the instrument for each well. This assay was adapted to a 96 well format to confirm and expand the HTS results. […] After 24 hours of incubation (37° C., 5% CO2), plates were washed with PBS to determine the number of adherent cells Alternatively, plates were spun down (500×g, room temperature, 5 minutes) and cells were harvested for staining with fluorescent Annexin V or antibodies against co-stimulatory markers CD80 and CD86 (Biolegend) according to the manufacturer's protocols and analyzed by flow cytometry (BD LSRFortessa).
# THP1-NF-κB cells [4] = experiment: Expression of co-stimulatory molecules CD80 and CD86 by flow cytometry; format: cell-based, human; details: 33 μM
# Protocol: as §2
# THP1-NF-κB cells [5] = experiment: Annexin V staining for apoptotic cells; format: cell-based, human; details: 33 μM
# Protocol: as §2
# NF-κB [6] = experiment: NF-κB activity in THP1-dual NF-κB/IRF reporter cells; format: cell-based, human; details: 22-24 hr, 100, 25, 6.25 and 1.56 μM, fold over DMSO
# Excerpt: as §1
# (§3) Briefly, THP1-dual NF-κB/IRF parent and derived cell lines were resuspended at a concentration of 10^5 cells/200 μl of THP1 culture medium and transferred to a 96-well plate pre-loaded with compounds dissolved in DMSO. In selected experiments, THP1 cells were also stimulated with TNF and IFNβ as controls for NF-κB and IRF activities, respectively. […]
# IRF [7] = experiment: IRF activity in THP1-dual NF-κB/IRF reporter cells; format: cell-based, human; details: 22-24 hr, 100, 25, 6.25 and 1.56 μM, fold over DMSO
# Excerpt: as §1, §3
# MyD88 = experiment: NF-κB and IRF activities in THP1 cells knocked out for MyD88, TBK1 or IRF3; format: cell-based, human; details: 25 μM, 22-24 hr, knockout vs parent THP1 cells
# Excerpt: as §1, §3
# STING = experiment: NF-κB and IRF activities in THP1 cells knocked out for cGAS or STING; format: cell-based, human; details: 25 μM, 22-24 hr, knockout vs parent THP1 cells
# Excerpt: as §1, §3
# murine STING = biological target: T1, murine STING (Mus musculus, UniProt Q3TBT3); experiment: NF-κB and IRF activities in THP1-dual reporter cells expressing murine STING; format: cell-based; details: 25 μM, 22-24 hr, fold over DMSO
# T1 construct: host or cells: THP1-dual NF-κB/IRF reporter cells (human monocytic line) expressing murine STING
# T1 sequence (Q3TBT3 1-378): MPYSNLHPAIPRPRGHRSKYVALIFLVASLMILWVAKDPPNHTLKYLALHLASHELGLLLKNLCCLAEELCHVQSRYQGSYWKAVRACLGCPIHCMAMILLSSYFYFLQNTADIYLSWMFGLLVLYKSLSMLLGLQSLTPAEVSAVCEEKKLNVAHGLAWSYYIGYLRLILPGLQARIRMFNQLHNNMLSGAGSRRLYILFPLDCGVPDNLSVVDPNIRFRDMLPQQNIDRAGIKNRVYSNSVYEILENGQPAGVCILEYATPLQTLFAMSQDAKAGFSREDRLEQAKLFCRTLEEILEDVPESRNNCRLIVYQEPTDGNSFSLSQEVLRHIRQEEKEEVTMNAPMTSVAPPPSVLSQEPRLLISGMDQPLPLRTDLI
# Excerpt: as §1, §3
# C57BL/6 mice = experiment: Influenza rHA immunization of mice, anti-rHA IgG by ELISA; details: rHA + compound vs rHA alone; for adjuvant activity: anti-rHA IgG titers: prime Day 0, boost Day 28, serum Day 28 and Day 42, i.m., 100 nmol
# Protocol: C57BL/6 mice were obtained from Charles River Laboratories and housed in specific pathogen-free conditions in the animal research facilities at Boston Children's Hospital.
# For immunization experiments, adult mice were immunized intramuscularly (i.m.) in the right posterior thigh with 50 μl of vaccine containing 0.33 μg of each of the following recombinant influenza virus hemagglutinins (rHA): A/Michigan/45/2015 (H1N1), A/Hong Kong/4801/2014 (H3N2), and B/Brisbane/60/2008, contained in the 2016-2017 formulation of the FluBlok vaccine (Protein Sciences Corp.). Mice were immunized with a prime-boost schedule (two injections four weeks apart). Vaccine in all experimental groups was formulated with 10% (v/v) DMSO and 5% (v/v) Tween-80. As indicated for specific experimental groups, vaccine was also formulated with compound 057 (100 nmol, final DMSO concentration 10%). Serum was collected 28 days post-prime (pre-boost blood sample) and 14 days post-boost for antibody detection. rHA-specific IgG were quantified by ELISA. High binding flat bottom 96-well plates (Corning Life Sciences) were coated with 1 μg/ml rHA in carbonate buffer pH 9.6, incubated overnight at 4° C. and blocked with PBS+BSA 1% (Sigma-Aldrich) for 1 h at room temperature (RT). Then, sera from vaccinated mice were added with an initial dilution of 1:100 and 1:4 serial dilutions in PBS+BSA 1% and incubated for 2 hrs at RT. Plates were then washed and incubated for 1 hr at RT with HRP-conjugated anti-mouse IgG (Southern Biotech). At the end of the incubation plates were washed again and developed with tetramethylbenzidine (BD Biosciences) for 5 minutes, then stopped with 1 N H2SO4. The optical density was read at 450 nm Versamax microplate reader with SoftMax Pro Version 5 (both from Molecular Devices) and endpoint titers were calculated using as cutoff three times the optical density of the background.
SMILES,NFκB-inducing activity (RLU) (NF-κB [1]),NFκB-inducing activity (RLU) (NF-κB [1]; listed as 057.2),IRF-inducing activity (RLU) (IRF [2]),IRF-inducing activity (RLU) (IRF [2]; listed as 057.2),NFκB-inducing activity (RLU) (NF-κB [1]; listed as 057.3),IRF-inducing activity (RLU) (IRF [2]; listed as 057.3),cell adherence (number of adherent cells) (THP1-NF-κB cells [3]),expression of co-stimulatory molecules CD80 and CD86 (MFI) (THP1-NF-κB cells [4]),apoptosis (Annexin V+ cells) (THP1-NF-κB cells [5]),NF-κB activity (NF-κB [6]),IRF activity (IRF [7]),dependence of NF-κB and IRF activities on MyD88 (MyD88),dependence of NF-κB and IRF activities on STING (STING),activation of murine STING (NF-κB and IRF activities) (murine STING),adjuvant activity: anti-rHA IgG titers (C57BL/6 mice),adjuvant activity: anti-rHA IgG titers (C57BL/6 mice; listed as PVP-057),"adjuvant activity: rHA-specific IgG titers (C57BL/6 mice; single i.m. injection Day 0, serum Day 14)"
COc1ccc(C(=O)Nc2nc(CC(=O)Nc3nc4ccc(S(C)(=O)=O)cc4s3)cs2)cc1 [Compound 57.2],comparable to or greater than the parent molecule 057,concentration-dependent activity,comparable to or greater than the parent molecule 057,concentration-dependent activity,–,–,–,–,–,–,–,–,–,–,–,–,–
COc1ccc(C(=O)Nc2nc(CC(=O)Nc3nc4ccccc4s3)cs2)cc1OC [Compound 57.3],comparable to or greater than the parent molecule 057,–,comparable to or greater than the parent molecule 057,–,concentration-dependent activity,concentration-dependent activity,–,–,–,–,–,–,–,–,–,–,–
CCOc1ccc2nc(NC(=O)Cc3csc(NC(=O)c4cc(OC)cc(OC)c4)n3)sc2c1 [Compound 057],concentration-dependent activity; also recorded: robustly induces both NFκB and IRF activities,–,concentration-dependent activity; also recorded: robustly induces both NFκB and IRF activities,–,–,–,induces cell adherence; also recorded: elicits human leukocyte adherence,induces the expression co-stimulatory molecules; also recorded: elicited the expression of surface co-stimulatory molecules; also recorded: elicits,does not induce apoptosis; also recorded: without inducing cellular apoptosis,dose-dependent response; also recorded: elicited both NFκB and IRF activities; also recorded: elicits,dose-dependent response; also recorded: elicited both NFκB and IRF activities; also recorded: elicits,MyD88-independent,STING-dependent,activates murine STING; also recorded: activated THP1 cells expressing murine STING,exerts adjuvant activity in vivo; also recorded: substantially higher antibody titers; also recorded: demonstrates in vivo adjuvanticity in mice,demonstrates in vivo adjuvanticity in mice,exerts adjuvant activity in vivo; also recorded: substantially higher antibody titers
